Here are results for six molecules from patent publication US4000269A, “S-(α-substituted-arylmethylthio, -arylmethylsulfinyl, and -arylmethylsulfonyl)methyl phosphorus esters used as insecticides” (priority 1975, dated 1976).

In the first data set the test system is False wireworm larvae (Eleodes suturalis). As to the kind of experiment: False Wireworm Control (treated soil, dust on talc). Format: in vivo. Conditions: 144 h, 1 lbs./Acre, potting soil, mortality after 6 days, read-out: Percent Control of False Wireworms. The procedure: Compounds are prepared as dusts on talc. The compounds are dissolved in acetone, and appropriate rates obtained by serial dilution. One and one-quarter milliliters of solution is pipetted onto a standard volume of dust in 1 -ounce jars, and the acetone allowed to evaporate. Twenty-five milliliters of moist soil and about three wheat seeds are placed in the jar, capped, and the contents thoroughly mixed. Ten False wireworm larvae (Eleodes suturalis ), 10 days old, are then placed in each jar. Mortality counts are made after 6 days and percent mortality determined.
On to `CCOP(=S)(OCC)SC[S+]([O-])C(C)(C)c1ccccc1` (stereo not drawn) [Example 27, S-(α,α-Dimethylbenzylsulfinyl)methyl O,O-Diethyl Phosphorodithioate], for which the mortality at 1120.85 g/ha is 0%.

Regarding `CCOP(=S)(OCC)SCSC(C)c1ccccc1` (stereo not drawn) [Example 15, S-(α-Methylbenzylthio)methyl O,O-Diethyl Phosphorodithioate], the mortality at 1120.85 g/ha amounted to 0%.

For `CCOP(=S)(OCC)SCSC(C)(C)c1ccccc1` [Example 2, S-(α,α-Dimethylbenzylthio)methyl O,O-Diethyl Phosphorodithioate], the mortality at 1120.85 g/ha came to 0%.

Regarding `COP(=S)(OC)SCSC(C)(C)c1ccccc1` [Example 5, S-(α,α-Dimethylbenzylthio)methyl O,O-Dimethyl Phosphorodithioate], the mortality at 1120.85 g/ha turned out to be 100%.

The same data set, now with this note: 144 h, 10 lbs./Acre, potting soil, mortality after 6 days, read-out: Percent Control of False Wireworms.
As to `CCOP(=S)(OCC)SC[S+]([O-])C(C)(C)c1ccccc1` (stereo not drawn) [Example 27, S-(α,α-Dimethylbenzylsulfinyl)methyl O,O-Diethyl Phosphorodithioate], the mortality at 11208.5 g/ha stood at 100%.

With `CCOP(=S)(OCC)SCSC(C)c1ccccc1` (stereo not drawn) [Example 15, S-(α-Methylbenzylthio)methyl O,O-Diethyl Phosphorodithioate], the mortality at 11208.5 g/ha is 100%.

For `CCOP(=S)(OCC)SCSC(C)(C)c1ccccc1` [Example 2, S-(α,α-Dimethylbenzylthio)methyl O,O-Diethyl Phosphorodithioate], the mortality at 11208.5 g/ha was 100%.

As for `COP(=S)(OC)SCSC(C)(C)c1ccccc1` [Example 5, S-(α,α-Dimethylbenzylthio)methyl O,O-Dimethyl Phosphorodithioate], the mortality at 11208.5 g/ha came to 100%.

Still in this data set, the particulars now being: 144 h, 50 lbs./Acre, potting soil, mortality after 6 days, read-out: Percent Control of False Wireworms.
With `CCOP(=S)(OCC)SC[S+]([O-])C(C)(C)c1ccccc1` (stereo not drawn) [Example 27, S-(α,α-Dimethylbenzylsulfinyl)methyl O,O-Diethyl Phosphorodithioate], the mortality at 56042.5 g/ha amounted to 100%.

Turning to `CCOP(=S)(OCC)SCSC(C)c1ccccc1` (stereo not drawn) [Example 15, S-(α-Methylbenzylthio)methyl O,O-Diethyl Phosphorodithioate], the mortality at 56042.5 g/ha worked out at 100%.

As to `CCOP(=S)(OCC)SCSC(C)(C)c1ccccc1` [Example 2, S-(α,α-Dimethylbenzylthio)methyl O,O-Diethyl Phosphorodithioate], the mortality at 56042.5 g/ha worked out at 100%.

For the molecule `COP(=S)(OC)SCSC(C)(C)c1ccccc1` [Example 5, S-(α,α-Dimethylbenzylthio)methyl O,O-Dimethyl Phosphorodithioate], the mortality at 56042.5 g/ha was determined as 100%.

A further data set has as its system Rats.
Experiment: not given
The arrangement: unit not given here. Conditions: Value reported in the literature; 20160 min; cited from earlier work.
As for `CCOP(=S)(OCC)SCSCc1ccccc1` [reference compound], the “LD50 Rats” value was 25.

The subject of another data set is Southern corn rootworm larvae (Diabrotica undecimpunctata). As to the kind of experiment: Southern Corn Rootworm Control (treated soil, dust on talc). Format: in vivo. Conditions: 144 h, 1 lbs./Acre, potting soil, mortality after 6 days, read-out: Percent Control of Southern Corn Rootworm Larvae. On the procedure: Compounds are prepared as dusts on talc. The compounds are dissolved in acetone, and appropriate rates obtained by serial dilution. One and one-quarter milliliters of solution is pipetted onto a standard volume of dust in 1 -ounce jars, and the acetone allowed to evaporate. Twenty-five milliliters of moist soil and about 200 millet seeds are placed in the jar, capped and the contents thoroughly mixed. Ten second-instar larvae of the Southern corn rootworm (Diabrotica undecimpunctata ) are then placed in each jar. Mortality counts are made after 6 days and percent mortality determined.
As to `CCCSP(=O)(OCC)SCSC(C)(C)c1ccccc1` (stereo not drawn) [Example 12, S-(α,α-Dimethylbenzylthio)methyl O-Ethyl S-Propyl Phosphorodithioate], the mortality at 1120.85 g/ha stood at 0%.

As for `CCOP(=S)(OCC)SC[S+]([O-])C(C)(C)c1ccccc1` (stereo not drawn) [Example 27, S-(α,α-Dimethylbenzylsulfinyl)methyl O,O-Diethyl Phosphorodithioate], the mortality at 1120.85 g/ha worked out at 0%.

On to `CCOP(=S)(OCC)SCSC(C)c1ccccc1` (stereo not drawn) [Example 15, S-(α-Methylbenzylthio)methyl O,O-Diethyl Phosphorodithioate], for which the mortality at 1120.85 g/ha came out at 80%.

Take `CCOP(=S)(OCC)SCSC(C)(C)c1ccccc1` [Example 2, S-(α,α-Dimethylbenzylthio)methyl O,O-Diethyl Phosphorodithioate]: the mortality at 1120.85 g/ha was 90%.

In the case of `COP(=S)(OC)SCSC(C)(C)c1ccccc1` [Example 5, S-(α,α-Dimethylbenzylthio)methyl O,O-Dimethyl Phosphorodithioate], the mortality at 1120.85 g/ha worked out at 100%.

Still in this data set, the particulars now being: 144 h, 10 lbs./Acre, potting soil, mortality after 6 days, read-out: Percent Control of Southern Corn Rootworm Larvae.
For the molecule `CCCSP(=O)(OCC)SCSC(C)(C)c1ccccc1` (stereo not drawn) [Example 12, S-(α,α-Dimethylbenzylthio)methyl O-Ethyl S-Propyl Phosphorodithioate], the mortality at 11208.5 g/ha was 100%.

With `CCOP(=S)(OCC)SC[S+]([O-])C(C)(C)c1ccccc1` (stereo not drawn) [Example 27, S-(α,α-Dimethylbenzylsulfinyl)methyl O,O-Diethyl Phosphorodithioate], the mortality at 11208.5 g/ha was 100%.

For `CCOP(=S)(OCC)SCSC(C)c1ccccc1` (stereo not drawn) [Example 15, S-(α-Methylbenzylthio)methyl O,O-Diethyl Phosphorodithioate], the mortality at 11208.5 g/ha amounted to 100%.

As to `CCOP(=S)(OCC)SCSC(C)(C)c1ccccc1` [Example 2, S-(α,α-Dimethylbenzylthio)methyl O,O-Diethyl Phosphorodithioate], the mortality at 11208.5 g/ha turned out to be 100%.

For `COP(=S)(OC)SCSC(C)(C)c1ccccc1` [Example 5, S-(α,α-Dimethylbenzylthio)methyl O,O-Dimethyl Phosphorodithioate], the mortality at 11208.5 g/ha came to 100%.

The same data set, now with this note: 144 h, 50 lbs./Acre, potting soil, mortality after 6 days, read-out: Percent Control of Southern Corn Rootworm Larvae.
With `CCCSP(=O)(OCC)SCSC(C)(C)c1ccccc1` (stereo not drawn) [Example 12, S-(α,α-Dimethylbenzylthio)methyl O-Ethyl S-Propyl Phosphorodithioate], the mortality at 56042.5 g/ha worked out at 100%.

As for `CCOP(=S)(OCC)SC[S+]([O-])C(C)(C)c1ccccc1` (stereo not drawn) [Example 27, S-(α,α-Dimethylbenzylsulfinyl)methyl O,O-Diethyl Phosphorodithioate], the mortality at 56042.5 g/ha was determined as 100%.

On to `CCOP(=S)(OCC)SCSC(C)c1ccccc1` (stereo not drawn) [Example 15, S-(α-Methylbenzylthio)methyl O,O-Diethyl Phosphorodithioate], for which the mortality at 56042.5 g/ha came out at 100%.

Consider `CCOP(=S)(OCC)SCSC(C)(C)c1ccccc1` [Example 2, S-(α,α-Dimethylbenzylthio)methyl O,O-Diethyl Phosphorodithioate], for which the mortality at 56042.5 g/ha was found to be 100%.

Turning to `COP(=S)(OC)SCSC(C)(C)c1ccccc1` [Example 5, S-(α,α-Dimethylbenzylthio)methyl O,O-Dimethyl Phosphorodithioate], the mortality at 56042.5 g/ha turned out to be 100%.

System in the next data set: not listed separately
As to the kind of experiment: Mammalian Toxicity Studies (LD50 for Rats). The arrangement: species or system male albino rats (Carworth Farms Nelson strain). Conditions: rat, in vivo; 14-day observation; corn oil. On the procedure:
(§1) Twenty male albino rats or mice of the Carworth Farms Nelson strain (CFI strain for mice)(or other suitable strain) weighing approximately 90 to 120 grams (18-20g. for mice) are selected. Basically, these animals are fasted 24 hours before dosing. Mice are not fasted.
(§2) For materials which are soluble or easily dispersed in an aqueous medium, a 20% solution or suspension is prepared in an aqueous solution of 0.2% agar and 0.1% "Tween" 80. The same series of dosages (grams or milliliters of material per kilogram of animal body weight) are used for all materials in this test. If no previous information is available on the compound or its analogs, a maximum dosage of 10 g/kg is selected to differ by a geometric factor of 2 from the preceding dose, i.e., 10, 5, 2.5, 1.25 g/kg. A sufficient number of dosages are given so as to bracket a 50% response. The animals are observed for several hours after dosing and daily over a 14-day observation period. At the end of this period the survivors are sacrificed, weighed and subjected to a gross autopsy. The results are tabulated and the LD50 is calculated by the method of moving averages using the tables constructed by Weil. [Weil, C. S., Biometrics, 8: (3), 249-263, 1952].
(§3) Samples received as liquids may be administered undiluted or as suspensions in aqueous Agar-Tween, depending on the viscosity of the material. If the material is believed to be relatively non-toxic, an initial maximum dosage of 10 ml/kg is selected and subsequent dosages are selected based upon the severity of gross signs of toxicity.
(§4) For organic phosphate anticholinesterase insecticides, the procedure is modified somewhat. The phosphates are readied for administration by preparing a solution or dispersion in corn oil (Mazola), the concentration of which is adjusted so that the total volume of the dose is 20 ml/kg ([…]) in every case. The initial solution is prepared by deciding upon the maximum dosage in mg/kg to be administered and preparing 50 ml. (10 in mouse test) of this solution of such a concentration that the desired dosage in mg/kg is delivered when 2 ml. (0.5 ml. in mouse test) of the solution is administered for 100 g (20 g in mouse) of rat body weight. Serial dilutions differing by a factor of two are then prepared for each lower dosage level.
Take `CCCSP(=O)(OCC)SCSC(C)(C)c1ccccc1` (stereo not drawn) [Example 12, S-(α,α-Dimethylbenzylthio)methyl O-Ethyl S-Propyl Phosphorodithioate]: the 50% lethal dose (LD50) at 336 h was 34 mg/kg.

In turn, `CCOP(=S)(OCC)SCSC(C)(C)c1ccccc1` [Example 2, S-(α,α-Dimethylbenzylthio)methyl O,O-Diethyl Phosphorodithioate] registered an LD50 at 336 h of 18 mg/kg.

`COP(=S)(OC)SCSC(C)(C)c1ccccc1` [Example 5, S-(α,α-Dimethylbenzylthio)methyl O,O-Dimethyl Phosphorodithioate] showed a median lethal dose (LD50) at 336 h of 28 mg/kg.

The next data set concerns Mites. As to the kind of experiment: Cut-Stem Systemic Test (Mites). Conditions: 100 ppm. emulsion, 3 days. Format: in vivo. The procedure:
(§5) The compound to be tested is formulated as an emulsion containing 0.1 gram of test material, 0.2 gram of Alrodyne 315 emulsifier, 10 ml. of acetone and 90 ml. of water. This is diluted tenfold with water to give a 100 ppm. emulsion for the initial test. A sieva lima bean plant with only the primary leaves unfolded is cut off just above soil level and inserted into a 2-ounce bottle of 100 ppm. emulsion and held in place by a bit of cotton wrapped around the stem. The bottle is then placed in a ventilated box with the leaves extending outside the box, such that any possible fumes from the compound will be drawn out the end of the box rather than rising to affect the test leaves. After holding 3 days at 80° F. and 60% R.H., one leaf from each plant is placed on a moist filter paper in the bottom of a petri dish. Ten third-instar Southern armyworm larvae are then added to each dish and mortality counts made after holding another 3 days at 80° F. and 60% R.H.
The same procedure described above is employed in the mite systemic evaluation excepting that the sieva lima bean leaves are infested with mites, both adult and nymphs, while the leaves are in the ventilated box. After 3 days the leaves are removed and examined under a microscope to determine percent mortality. Data obtained are reported in the Table IV below where it can be seen that the compounds of the present invention are systemically effective insecticidal agents.
For the molecule `CCCSP(=O)(OCC)SCSC(C)(C)c1ccccc1` (stereo not drawn) [Example 12, S-(α,α-Dimethylbenzylthio)methyl O-Ethyl S-Propyl Phosphorodithioate], the “% Mortality, Mites (Systemic Insecticidal Activity)” value is 90%.

As for `CCOP(=S)(OCC)SCSC(C)(C)c1ccccc1` [Example 2, S-(α,α-Dimethylbenzylthio)methyl O,O-Diethyl Phosphorodithioate], the “% Mortality, Mites (Systemic Insecticidal Activity)” value worked out at 80%.

System in a further data set: not listed separately
Briefly: Mammalian Toxicity Studies (LD50 for Mice). Also noted: species or system mice (Carworth Farms Nelson, CFI strain). Conditions: mouse, in vivo; 14-day observation; corn oil. The procedure: as §1, §2, §3, §4
The molecule `CCOP(=S)(OCC)SC[S+]([O-])C(C)(C)c1ccccc1` (stereo not drawn) [Example 27, S-(α,α-Dimethylbenzylsulfinyl)methyl O,O-Diethyl Phosphorodithioate] gave a median lethal dose (LD50) at 336 h of 88 mg/kg.

Molecule `CCOP(=S)(OCC)SCSC(C)c1ccccc1` (stereo not drawn) [Example 15, S-(α-Methylbenzylthio)methyl O,O-Diethyl Phosphorodithioate] had a median lethal dose (LD50) at 336 h of 67 mg/kg.

With `CCOP(=S)(OCC)SCSC(C)(C)c1ccccc1` [Example 2, S-(α,α-Dimethylbenzylthio)methyl O,O-Diethyl Phosphorodithioate], the 50% lethal dose (LD50) at 336 h was found to be 71 mg/kg.

`CCOP(=S)(OCC)SCSCc1ccccc1` [reference compound] had a median lethal dose (LD50) at 336 h of 67 mg/kg.

In turn, `COP(=S)(OC)SCSC(C)(C)c1ccccc1` [Example 5, S-(α,α-Dimethylbenzylthio)methyl O,O-Dimethyl Phosphorodithioate] registered an LD50 at 336 h of 117 mg/kg.

The test system of the next data set is Southern armyworm larvae. As to the kind of experiment: Cut-Stem Systemic Test (Southern Armyworm). The data set is classed as in vivo. Conditions: Spodoptera eridania, 72 h, read-out: % Mortality, Southern Armyworms (Systemic Insecticidal Activity). On the procedure: as §5
For the molecule `CCOP(=S)(OCC)SCSC(C)(C)c1ccccc1` [Example 2, S-(α,α-Dimethylbenzylthio)methyl O,O-Diethyl Phosphorodithioate], the mortality at 100 µg/mL came out at 100%.

Still in this data set, the particulars now being: Spodoptera eridania, 72 h; cut-stem, 100 ppm. emulsion; larvae held 3 days; read-out: % Mortality, Southern Armyworms (Systemic Insecticidal Activity).
As to `CCCSP(=O)(OCC)SCSC(C)(C)c1ccccc1` (stereo not drawn) [Example 12, S-(α,α-Dimethylbenzylthio)methyl O-Ethyl S-Propyl Phosphorodithioate], the mortality at 100 µg/mL came to 0%.

As a reminder, the LD50 is the dose at which mortality reaches 50%.
